The text below walks through data of US10472356B2, “Bicyclic ketone sulfonamide compounds” (AMGEN INC., priority 2015, dated 2019).

The target of assay [1] is T1, human Nav1.7 (Homo sapiens, UniProt Q15858).
T1 construct: expressed in transfected cells; host or cells: HEK293
In words: Nav 1.7 In Vitro PatchXpress (PX) Assay. Format: cell-based. The following applies: HEK 293 cells stably transfected with human Nav1.7; PatchXpress whole cell voltage clamp; partially inactivated state (holding potential yielding 20 to 50% inactivation); read-out: hNav1.7 PX IC50. The protocol:
Nav 1.7 In Vitro PatchXpress (PX) Assay
HEK 293 cells stably transfected with human Nav1.7 were recorded in whole cell voltage clamp mode with the PatchXpress automated electrophysiology system (Molecular Devices, LLC, Sunnyvale, Calif.). Compound effects were measured on a partially inactivated state of the sodium channel. Cells were clamped to a holding potential yielding 20 to 50% inactivation. To elicit sodium current, channels were activated by pulsing to −10 mV for 20 msec. This voltage protocol was repeated at a rate of 0.1 Hz throughout the experiment. A single concentration of test compound was applied to cells for a duration of 3 minutes. Peak sodium current was measured at the end of the compound addition period to determine percent inhibition. Three to five cells were tested per concentration, and IC50 curves were fitted to percent inhibition as a function of concentration.

Assay [2] addresses T1, human Nav1.7. Kind of assay: Nav 1.7 IWB In Vitro Assay (IonWorks Barracuda). Format: cell-based. Particulars: HEK293 cells stably transfected with human Nav 1.7; IonWorks Barracuda population patch-clamp; cells clamped to −20 mV for 4 minutes with compound; 26th pulse; read-out: hNav1.7 IWB IC50. The protocol:
Nav 1.7 IWB In Vitro Assay
HEK293 cells stably transfected with human Nav 1.7 were recorded in population patch-clamp mode with the IonWorks© Barracuda (IWB) automated electrophysiology system (Molecular Devices, LLC, Sunnyvale, Calif.). From a holding potential of −110 mV, sodium currents were elicited by a train of 26 depolarizations of 150 ms duration to −20 mV at a frequency of 5 Hz. Cells were then clamped to −20 mV for a period of 4 minutes in the presence of a single concentration of test compound. Following this compound incubation period, cells were clamped to −110 mV for three seconds to recover unbound channels and put through the same 26 pulse voltage protocol as above. Peak inward current during the 26th pulse to −20 mV in the presence of compound was divided by the peak inward current evoked by the 26th pulse to −20 mV in the absence of compound to determine percent inhibition. Concentration-response curves of percent inhibition as a function of concentration were generated to calculate IC50 values.

T1 sequence (Q15858 whole entry): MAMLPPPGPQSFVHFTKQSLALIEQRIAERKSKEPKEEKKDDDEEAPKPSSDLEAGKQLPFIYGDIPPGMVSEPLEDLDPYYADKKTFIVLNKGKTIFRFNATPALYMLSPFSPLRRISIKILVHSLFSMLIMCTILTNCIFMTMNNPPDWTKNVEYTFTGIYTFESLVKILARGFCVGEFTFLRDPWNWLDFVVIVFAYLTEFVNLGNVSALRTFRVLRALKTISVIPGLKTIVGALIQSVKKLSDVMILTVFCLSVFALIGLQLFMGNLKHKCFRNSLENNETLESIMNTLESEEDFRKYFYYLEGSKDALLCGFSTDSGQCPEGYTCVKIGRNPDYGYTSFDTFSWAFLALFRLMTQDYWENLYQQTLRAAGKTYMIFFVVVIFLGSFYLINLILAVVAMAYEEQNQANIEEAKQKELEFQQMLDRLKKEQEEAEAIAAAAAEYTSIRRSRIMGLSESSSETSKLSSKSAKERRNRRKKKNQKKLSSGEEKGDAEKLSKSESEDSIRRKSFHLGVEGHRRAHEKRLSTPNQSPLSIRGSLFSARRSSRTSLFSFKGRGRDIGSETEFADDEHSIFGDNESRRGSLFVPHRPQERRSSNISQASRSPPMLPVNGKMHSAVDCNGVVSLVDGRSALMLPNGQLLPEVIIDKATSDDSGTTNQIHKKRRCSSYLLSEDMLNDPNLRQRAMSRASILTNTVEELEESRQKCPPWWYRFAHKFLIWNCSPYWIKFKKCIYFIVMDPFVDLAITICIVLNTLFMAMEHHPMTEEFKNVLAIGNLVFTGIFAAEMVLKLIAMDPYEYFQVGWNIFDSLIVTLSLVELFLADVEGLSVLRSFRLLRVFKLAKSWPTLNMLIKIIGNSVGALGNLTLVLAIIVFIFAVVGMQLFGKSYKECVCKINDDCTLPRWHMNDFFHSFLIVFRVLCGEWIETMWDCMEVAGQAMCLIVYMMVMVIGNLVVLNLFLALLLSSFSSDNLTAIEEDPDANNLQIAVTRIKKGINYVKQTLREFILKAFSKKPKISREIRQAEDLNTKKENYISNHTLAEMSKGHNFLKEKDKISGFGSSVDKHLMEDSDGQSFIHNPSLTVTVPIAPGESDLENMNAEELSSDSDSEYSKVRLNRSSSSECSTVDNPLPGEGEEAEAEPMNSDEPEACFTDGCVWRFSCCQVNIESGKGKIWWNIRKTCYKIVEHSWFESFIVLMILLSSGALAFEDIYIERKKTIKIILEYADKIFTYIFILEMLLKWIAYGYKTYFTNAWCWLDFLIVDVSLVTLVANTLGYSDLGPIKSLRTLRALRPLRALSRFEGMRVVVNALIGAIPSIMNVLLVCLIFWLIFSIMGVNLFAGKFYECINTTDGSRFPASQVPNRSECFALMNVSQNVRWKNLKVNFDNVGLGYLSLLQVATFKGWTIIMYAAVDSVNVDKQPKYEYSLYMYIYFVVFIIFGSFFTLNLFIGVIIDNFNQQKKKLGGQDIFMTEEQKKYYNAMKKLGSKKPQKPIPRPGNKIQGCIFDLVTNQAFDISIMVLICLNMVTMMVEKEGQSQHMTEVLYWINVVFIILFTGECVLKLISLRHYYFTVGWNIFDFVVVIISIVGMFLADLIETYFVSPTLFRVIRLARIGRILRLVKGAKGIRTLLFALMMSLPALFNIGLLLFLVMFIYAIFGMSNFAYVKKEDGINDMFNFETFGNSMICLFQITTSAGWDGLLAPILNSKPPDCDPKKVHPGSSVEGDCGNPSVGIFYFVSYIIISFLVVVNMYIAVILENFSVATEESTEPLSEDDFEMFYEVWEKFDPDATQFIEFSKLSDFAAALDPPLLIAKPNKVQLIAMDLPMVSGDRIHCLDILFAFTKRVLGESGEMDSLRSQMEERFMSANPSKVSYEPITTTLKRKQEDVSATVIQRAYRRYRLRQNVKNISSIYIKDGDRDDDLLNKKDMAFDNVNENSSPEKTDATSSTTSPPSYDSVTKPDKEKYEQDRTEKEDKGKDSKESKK

On to `COc1cc(-c2cc(F)cc(Cl)c2)ccc1-n1c2c(ccc1=O)CN(S(=O)(=O)Nc1cccnn1)CC2` (racemic) [8-(Rac), (Rac)-1-(3′-chloro-5′-fluoro-3-methoxy-4-biphenylyl)-2-oxo-N-3-pyridazinyl-1,5,7,8-tetrahydro-1,6-naphthyridine-6(2H)-sulfonamide], for which the figures for the concentration for half-maximal inhibition (IC50) in assay [1] and in assay [2] were 350 nM and 31.7 nM, respectively.
For `COc1cc(-c2cc(F)cc(F)c2)c(F)cc1-n1c2c(ccc1=O)CN(S(=O)(=O)Nc1ncc(F)cn1)CC2` (racemic) [Example 10-(Rac), (Rac)-N-(5-fluoro-2-pyrimidinyl)-2-oxo-1-(2,3′,5′-trifluoro-5-methoxy-4-biphenylyl)-1,5,7,8-tetrahydro-1,6-naphthyridine-6(2H)-sulfonamide], the figures for the 50% inhibitory concentration (IC50) in assay [1] and in assay [2] were 2280 nM and 163 nM, respectively.
For `COc1cc(-c2cc(C)cc(C(F)(F)F)c2)c(F)cc1-n1c2c(ccc1=O)CN(S(=O)(=O)Nc1cccnn1)CC2` [Example 75, P-1-(2-fluoro-5-methoxy-3′-methyl-5′-(trifluoromethyl)-[1,1′-biphenyl]-4-yl)-2-oxo-N-(pyridazin-3-yl)-1,2,7,8-tetrahydro-1,6-naphthyridine-6(5H)-sulfonamide] the same measures were 41.3 nM and 11.6 nM.
The like results for `COc1cc(-c2ccc(C(F)(F)F)cc2)c(F)cc1-n1c2c(ccc1=O)CN(S(=O)(=O)Nc1cccnn1)CC2` [Example 67, P-1-(2-fluoro-5-methoxy-4′-(trifluoromethyl)-[1,1′-biphenyl]-4-yl)-2-oxo-N-(pyridazin-3-yl)-1,2,7,8-tetrahydro-1,6-naphthyridine-6(5H)-sulfonamide] were, in that order, 75.8 nM and 20.5 nM.
The like results for `COc1cc(-c2cc(F)cc(Cl)c2)c(F)cc1-n1c2c(ccc1=O)CN(S(=O)(=O)Nc1cccc(F)n1)CC2` (single isomer, unassigned) [Example 13-M, M-1-(3′-chloro-2,5′-difluoro-5-methoxy-4-biphenylyl)-N-(6-fluoro-2-pyridinyl)-2-oxo-1,5,7,8-tetrahydro-1,6-naphthyridine-6(2H)-sulfonamide] were, in that order, 7550 nM and 983 nM.
`COc1cc(Cl)cc(-c2cc(OC)c(-n3c4c(ccc3=O)CN(S(=O)(=O)Nc3cccnn3)CC4)cc2F)c1` [Example 70, P-1-(3′-chloro-2-fluoro-5,5′-dimethoxy-[1,1′-biphenyl]-4-yl)-2-oxo-N-(pyridazin-3-yl)-1,2,7,8-tetrahydro-1,6-naphthyridine-6(5H)-sulfonamide]: the IC50 in assay [1] amounted to 20 nM; in assay [2], 6.2 nM.
For `COc1cc(-c2cc(F)cc(Cl)c2)c(F)cc1-n1c2c(ccc1=O)CN(S(=O)(=O)Nc1ccnc(C)n1)CC2` (racemic) [6-(Rac), (Rac)-1-(3′-chloro-2,5′-difluoro-5-methoxy-4-biphenylyl)-N-(2-methyl-4-pyrimidinyl)-2-oxo-1,5,7,8-tetrahydro-1,6-naphthyridine-6(2H)-sulfonamide], the IC50 in assay [1] was found to be 666 nM; in assay [2] it was 101 nM.
`COc1cc(-c2cc(F)cc(Cl)c2)c(F)cc1-n1c2c(ccc1=O)CN(S(=O)(=O)Nc1cccnn1)CC2` (single isomer, unassigned) [Example 38-M, M-1-(3′-chloro-2,5′-difluoro-5-methoxy-4-biphenylyl)-2-oxo-N-3-pyridazinyl-1,5,7,8-tetrahydro-1,6-naphthyridine-6(2H)-sulfonamide]: the half-maximal inhibitory concentration (IC50) was 3120 nM in assay [1] and 662 nM in assay [2].
Turning to `COc1cc(-c2ccc(F)c(C)c2)c(F)cc1-n1c2c(ccc1=O)CN(S(=O)(=O)Nc1ccon1)CC2` (single isomer, unassigned) [Example 22-M, M-1-(2,4′-difluoro-5-methoxy-3′-methyl-4-biphenylyl)-N-3-isoxazolyl-2-oxo-1,5,7,8-tetrahydro-1,6-naphthyridine-6(2H)-sulfonamide], the IC50 in assay [1] was above 30000 nM; in assay [2], above 10000 nM.

In general, IC50 refers to the concentration that inhibits the measured activity by half.
